Laboratory results: patent US20260356819A1, “OXOISOINDOLINYL-SUBSTITUTED […] DERIVATIVE AND USE THEREOF” (GLUETACS THERAPEUTICS (SHANGHAI) CO., LTD., priority 2023, published 2026)

Key:
Assay type in all cases: cell-based
Conditions in all cases: compounds at 50 nM and 500 nM
WEE1 = biological target: T1, WEE1 (Homo sapiens, UniProt P30291+Q96SW2); experiment: Western blot degradation of WEE1 in hPBMCs (24 h)
T1 construct: The supernatant was aspirated as the extracted total cell protein; endogenous in cells; host or cells: human peripheral blood mononuclear cells (hPBMCs)
Procedure, shortened: (§1)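 Immunoblot densitometry quantifies target loss in hPBMCs after a 24 h compound exposure (50 nM, 500 nM). Percent remaining is normalised band intensity; DC50 is the concentration giving half the DMSO-control band grayscale.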

IKZF1 = biological target: T2, IKZF1 (Homo sapiens, UniProt Q13422+Q96SW2); experiment: Western blot degradation of IKZF1 in hPBMCs (24 h)
T2 construct: The supernatant was aspirated as the extracted total cell protein; endogenous in cells; host or cells: human peripheral blood mononuclear cells (hPBMCs)
T2 sequence (Q13422 whole entry): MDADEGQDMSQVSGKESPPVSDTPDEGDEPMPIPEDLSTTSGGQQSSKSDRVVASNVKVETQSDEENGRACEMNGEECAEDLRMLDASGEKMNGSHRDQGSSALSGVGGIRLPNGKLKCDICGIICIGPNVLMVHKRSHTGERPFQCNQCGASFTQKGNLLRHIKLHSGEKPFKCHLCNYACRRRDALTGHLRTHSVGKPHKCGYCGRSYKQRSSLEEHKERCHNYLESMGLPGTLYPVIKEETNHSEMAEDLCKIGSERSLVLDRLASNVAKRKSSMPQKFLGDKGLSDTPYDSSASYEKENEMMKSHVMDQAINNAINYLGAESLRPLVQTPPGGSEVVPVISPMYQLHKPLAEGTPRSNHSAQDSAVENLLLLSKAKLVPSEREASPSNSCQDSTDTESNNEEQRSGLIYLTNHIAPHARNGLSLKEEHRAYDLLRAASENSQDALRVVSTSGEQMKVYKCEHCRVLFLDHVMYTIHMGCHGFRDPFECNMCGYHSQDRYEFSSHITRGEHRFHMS
T2 sequence (Q96SW2 whole entry): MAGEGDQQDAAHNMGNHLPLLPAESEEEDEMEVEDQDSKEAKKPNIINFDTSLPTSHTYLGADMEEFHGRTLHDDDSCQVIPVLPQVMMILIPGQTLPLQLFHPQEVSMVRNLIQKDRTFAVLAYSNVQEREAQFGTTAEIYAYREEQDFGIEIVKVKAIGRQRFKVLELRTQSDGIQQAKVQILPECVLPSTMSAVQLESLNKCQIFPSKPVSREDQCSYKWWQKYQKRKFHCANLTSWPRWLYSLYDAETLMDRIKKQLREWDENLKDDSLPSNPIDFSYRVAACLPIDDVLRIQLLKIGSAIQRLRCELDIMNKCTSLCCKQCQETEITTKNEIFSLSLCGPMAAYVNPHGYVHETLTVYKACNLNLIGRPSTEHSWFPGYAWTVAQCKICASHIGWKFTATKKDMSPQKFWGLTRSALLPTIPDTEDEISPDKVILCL
T2 sequence (Q16531 whole entry partner): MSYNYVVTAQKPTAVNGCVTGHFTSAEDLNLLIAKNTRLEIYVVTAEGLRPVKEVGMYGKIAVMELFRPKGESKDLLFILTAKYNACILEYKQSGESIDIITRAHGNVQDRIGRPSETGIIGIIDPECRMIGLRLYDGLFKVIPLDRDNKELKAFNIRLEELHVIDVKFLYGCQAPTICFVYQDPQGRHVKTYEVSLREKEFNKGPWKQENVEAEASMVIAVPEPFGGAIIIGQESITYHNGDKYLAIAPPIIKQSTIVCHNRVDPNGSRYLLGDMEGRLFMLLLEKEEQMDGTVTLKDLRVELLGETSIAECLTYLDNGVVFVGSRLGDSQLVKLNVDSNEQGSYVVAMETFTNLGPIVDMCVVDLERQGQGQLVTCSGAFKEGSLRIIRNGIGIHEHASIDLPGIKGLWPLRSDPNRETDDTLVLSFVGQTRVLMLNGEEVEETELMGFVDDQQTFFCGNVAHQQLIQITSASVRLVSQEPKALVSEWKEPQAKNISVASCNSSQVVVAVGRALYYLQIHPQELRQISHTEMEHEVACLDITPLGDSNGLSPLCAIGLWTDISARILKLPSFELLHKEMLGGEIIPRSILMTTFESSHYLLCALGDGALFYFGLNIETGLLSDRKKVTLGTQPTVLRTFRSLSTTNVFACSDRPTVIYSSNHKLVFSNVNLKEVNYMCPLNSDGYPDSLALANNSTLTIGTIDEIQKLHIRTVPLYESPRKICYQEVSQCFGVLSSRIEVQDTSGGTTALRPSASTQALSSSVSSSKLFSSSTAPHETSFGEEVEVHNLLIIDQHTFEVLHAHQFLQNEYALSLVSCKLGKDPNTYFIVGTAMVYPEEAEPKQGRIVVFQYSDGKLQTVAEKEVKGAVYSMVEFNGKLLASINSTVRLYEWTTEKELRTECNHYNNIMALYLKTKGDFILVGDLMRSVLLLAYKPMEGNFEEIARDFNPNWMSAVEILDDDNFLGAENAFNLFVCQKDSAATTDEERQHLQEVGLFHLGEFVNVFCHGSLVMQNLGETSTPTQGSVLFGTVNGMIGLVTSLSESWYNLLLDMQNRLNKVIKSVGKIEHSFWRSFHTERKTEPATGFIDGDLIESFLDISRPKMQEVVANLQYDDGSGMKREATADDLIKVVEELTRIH
Procedure, shortened: as §1

IKZF2 = biological target: T3, IKZF2 (Homo sapiens, UniProt Q96SW2+Q9UKS7); experiment: Western blot degradation of IKZF2 in hPBMCs (24 h)
T3 construct: The supernatant was aspirated as the extracted total cell protein; endogenous in cells; host or cells: human peripheral blood mononuclear cells (hPBMCs)
T3 sequence (Q9UKS7 whole entry): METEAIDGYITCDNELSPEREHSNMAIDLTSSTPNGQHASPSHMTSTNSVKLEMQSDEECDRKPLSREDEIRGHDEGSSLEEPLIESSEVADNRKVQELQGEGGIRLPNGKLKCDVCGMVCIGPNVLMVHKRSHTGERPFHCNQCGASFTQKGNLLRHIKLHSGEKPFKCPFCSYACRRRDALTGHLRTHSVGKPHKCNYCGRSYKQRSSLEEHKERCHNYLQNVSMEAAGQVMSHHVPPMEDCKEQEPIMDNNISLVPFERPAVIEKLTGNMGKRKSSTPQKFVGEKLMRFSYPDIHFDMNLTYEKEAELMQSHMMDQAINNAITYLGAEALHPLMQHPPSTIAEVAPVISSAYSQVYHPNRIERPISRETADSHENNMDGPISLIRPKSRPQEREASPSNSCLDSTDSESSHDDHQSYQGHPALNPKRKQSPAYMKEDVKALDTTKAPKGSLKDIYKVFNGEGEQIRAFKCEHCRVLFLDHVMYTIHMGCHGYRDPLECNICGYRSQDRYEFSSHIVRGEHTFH
T3 sequence (Q96SW2 whole entry): as the sequence (Q96SW2 whole entry) above
T3 sequence (Q16531 whole entry partner): as the sequence (Q16531 whole entry partner) above
Procedure, shortened: as §1

IKZF3 = biological target: T4, IKZF3 (Homo sapiens, UniProt Q96SW2+Q9UKT9); experiment: Western blot degradation of IKZF3 in hPBMCs (24 h)
T4 construct: The supernatant was aspirated as the extracted total cell protein; endogenous in cells; host or cells: human peripheral blood mononuclear cells (hPBMCs)
T4 sequence (Q9UKT9 whole entry): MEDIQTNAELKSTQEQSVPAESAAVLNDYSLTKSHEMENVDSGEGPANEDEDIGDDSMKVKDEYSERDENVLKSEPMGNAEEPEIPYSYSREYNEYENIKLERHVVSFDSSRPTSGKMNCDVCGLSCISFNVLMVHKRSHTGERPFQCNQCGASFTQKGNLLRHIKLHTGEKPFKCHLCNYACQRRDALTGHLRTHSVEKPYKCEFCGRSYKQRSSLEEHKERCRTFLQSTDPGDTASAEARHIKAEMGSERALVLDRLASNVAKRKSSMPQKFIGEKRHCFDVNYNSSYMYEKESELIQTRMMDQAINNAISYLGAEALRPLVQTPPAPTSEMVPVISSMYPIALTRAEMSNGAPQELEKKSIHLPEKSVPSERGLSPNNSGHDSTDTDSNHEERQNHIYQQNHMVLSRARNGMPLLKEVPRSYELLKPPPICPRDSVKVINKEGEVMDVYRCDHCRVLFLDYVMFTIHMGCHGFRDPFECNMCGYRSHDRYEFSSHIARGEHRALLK
T4 sequence (Q96SW2 whole entry): as the sequence (Q96SW2 whole entry) above
T4 sequence (Q16531 whole entry partner): as the sequence (Q16531 whole entry partner) above
Procedure, shortened: as §1

CK1α = biological target: T5, CK1α (Homo sapiens, UniProt P48729+Q96SW2); experiment: Western blot degradation of CK1α in hPBMCs (24 h)
T5 construct: The supernatant was aspirated as the extracted total cell protein; endogenous in cells; host or cells: human peripheral blood mononuclear cells (hPBMCs)
T5 sequence (P48729 whole entry): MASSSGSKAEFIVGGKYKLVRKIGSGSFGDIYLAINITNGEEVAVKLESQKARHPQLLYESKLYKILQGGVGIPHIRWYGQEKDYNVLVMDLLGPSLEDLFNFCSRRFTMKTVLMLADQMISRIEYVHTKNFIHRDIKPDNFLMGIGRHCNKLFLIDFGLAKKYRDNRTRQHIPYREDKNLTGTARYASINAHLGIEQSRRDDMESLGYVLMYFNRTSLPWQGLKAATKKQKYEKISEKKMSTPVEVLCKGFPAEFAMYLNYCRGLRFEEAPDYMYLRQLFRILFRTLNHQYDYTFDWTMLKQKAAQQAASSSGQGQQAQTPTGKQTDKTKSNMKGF
T5 sequence (Q96SW2 whole entry): as the sequence (Q96SW2 whole entry) above
T5 sequence (Q16531 whole entry partner): as the sequence (Q16531 whole entry partner) above
Procedure, shortened: as §1

GSPT1 = biological target: T6, GSPT1 (Homo sapiens, UniProt P15170+Q96SW2); experiment: Western blot degradation of GSPT1 in hPBMCs (24 h)
T6 construct: The supernatant was aspirated as the extracted total cell protein; endogenous in cells; host or cells: human peripheral blood mononuclear cells (hPBMCs)
T6 sequence (P15170 whole entry): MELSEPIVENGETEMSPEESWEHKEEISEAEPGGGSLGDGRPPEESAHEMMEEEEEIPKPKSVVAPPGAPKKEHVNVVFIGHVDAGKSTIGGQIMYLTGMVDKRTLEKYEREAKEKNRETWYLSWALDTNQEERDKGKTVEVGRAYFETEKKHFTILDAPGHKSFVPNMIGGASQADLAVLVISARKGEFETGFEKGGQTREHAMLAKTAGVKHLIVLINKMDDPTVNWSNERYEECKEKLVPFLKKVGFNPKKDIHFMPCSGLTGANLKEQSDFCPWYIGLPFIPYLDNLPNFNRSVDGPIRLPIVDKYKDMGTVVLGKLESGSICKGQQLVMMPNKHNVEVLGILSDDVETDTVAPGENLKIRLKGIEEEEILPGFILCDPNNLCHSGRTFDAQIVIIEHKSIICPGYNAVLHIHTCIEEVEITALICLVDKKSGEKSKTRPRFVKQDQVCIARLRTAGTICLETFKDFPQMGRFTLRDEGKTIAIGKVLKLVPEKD
T6 sequence (Q96SW2 whole entry): as the sequence (Q96SW2 whole entry) above
T6 sequence (Q16531 whole entry partner): as the sequence (Q16531 whole entry partner) above
Procedure, shortened: as §1

Structure (SMILES): Cc1cscc1C1CCN(Cc2ccc3c(c2)CN(N2CCC(=O)NC2=O)C3=O)CC1 [GT-07372, 1-(5-((4-(4-methylthiophen-3-yl)piperidin-1-yl)methyl)-1-oxoisoindolin-2-yl)dihydropyrimidine-2,4(1H,3H)-dione]
- WEE1 substrate protein remaining % (WEE1): B (80%< substrate protein remaining % ≤100%)
- IKZF1 substrate protein remaining % (IKZF1): B (80%< substrate protein remaining % ≤100%)
- IKZF2 substrate protein remaining % (IKZF2): B (80%< substrate protein remaining % ≤100%)
- IKZF3 substrate protein remaining % (IKZF3): A (0% ≤ substrate protein remaining % ≤80%)
- CK1α substrate protein remaining % (CK1α): B (80%< substrate protein remaining % ≤100%)
- GSPT1 substrate protein remaining % (GSPT1): A (0% ≤ substrate protein remaining % ≤80%)

Structure (SMILES): O=C1CCN(N2C(=O)c3ccc(CN4CC5CCC(C4)N5C(c4ccccc4)c4ccccc4)cc3C2=O)C(=O)N1 [GT-06453, 5-((8-benzhydryl-3,8-diazabicyclo[3.2.1]octan-3-yl)methyl)-2-(2,4-dioxotetrahydropyrimidin-1(2H)-yl)isoindoline-1,3-dione]
- WEE1 substrate protein remaining % (WEE1): B (80%< substrate protein remaining % ≤100%)
- IKZF1 substrate protein remaining % (IKZF1): B (80%< substrate protein remaining % ≤100%)
- IKZF2 substrate protein remaining % (IKZF2): A (0% ≤ substrate protein remaining % ≤80%)
- IKZF3 substrate protein remaining % (IKZF3): B (80%< substrate protein remaining % ≤100%)
- CK1α substrate protein remaining % (CK1α): B (80%< substrate protein remaining % ≤100%)
- GSPT1 substrate protein remaining % (GSPT1): B (80%< substrate protein remaining % ≤100%)

Structure (SMILES): O=C1CCN(N2Cc3cc(CN4CCC(c5ccoc5)CC4)ccc3C2=O)C(=O)N1 [GT-07375, 1-(5-((4-(furan-3-yl)piperidin-1-yl)methyl)-1-oxoisoindolin-2-yl)dihydropyrimidine-2,4(1H,3H)-dione]
- WEE1 substrate protein remaining % (WEE1): B (80%< substrate protein remaining % ≤100%)
- IKZF1 substrate protein remaining % (IKZF1): B (80%< substrate protein remaining % ≤100%)
- IKZF2 substrate protein remaining % (IKZF2): B (80%< substrate protein remaining % ≤100%)
- IKZF3 substrate protein remaining % (IKZF3): B (80%< substrate protein remaining % ≤100%)
- CK1α substrate protein remaining % (CK1α): A (0% ≤ substrate protein remaining % ≤80%)
- GSPT1 substrate protein remaining % (GSPT1): A (0% ≤ substrate protein remaining % ≤80%)

Structure (SMILES): O=C1CCN(N2Cc3cc(CN4CCN(c5ccc(F)cn5)CC4)ccc3C2=O)C(=O)N1 [GT-05131, 1-(5-((4-(5-fluoropyridin-2-yl)piperazin-1-yl)methyl)-1-oxoisoindolin-2-yl)dihydropyrimidine-2,4(1H,3H)-dione]
- WEE1 substrate protein remaining % (WEE1): A (0% ≤ substrate protein remaining % ≤80%)
- IKZF1 substrate protein remaining % (IKZF1): A (0% ≤ substrate protein remaining % ≤80%)
- IKZF2 substrate protein remaining % (IKZF2): A (0% ≤ substrate protein remaining % ≤80%)
- IKZF3 substrate protein remaining % (IKZF3): A (0% ≤ substrate protein remaining % ≤80%)
- CK1α substrate protein remaining % (CK1α): A (0% ≤ substrate protein remaining % ≤80%)
- GSPT1 substrate protein remaining % (GSPT1): A (0% ≤ substrate protein remaining % ≤80%)

Structure (SMILES): O=C1CCN(N2C(=O)c3ccc(CN4CC=C(c5ncnc6sc(-c7ccccc7)cc56)CC4)cc3C2=O)C(=O)N1 [GT-08430, 2-(2,4-dioxotetrahydropyrimidin-1(2H)-yl)-5-((4-(6-phenylthieno[2,3-d]pyrimidin-4-yl)-3,6-dihydropyridin-1(2H)-yl)methyl)isoindoline-1,3-dione]
- WEE1 substrate protein remaining % (WEE1): A (0% ≤ substrate protein remaining % ≤80%)
- IKZF1 substrate protein remaining % (IKZF1): B (80%< substrate protein remaining % ≤100%)
- IKZF2 substrate protein remaining % (IKZF2): B (80%< substrate protein remaining % ≤100%)
- IKZF3 substrate protein remaining % (IKZF3): B (80%< substrate protein remaining % ≤100%)
- CK1α substrate protein remaining % (CK1α): B (80%< substrate protein remaining % ≤100%)
- GSPT1 substrate protein remaining % (GSPT1): B (80%< substrate protein remaining % ≤100%)

Structure (SMILES): O=C1CCN(N2Cc3cc(CN4CC5CCC(C4)N5C(c4ccccc4)c4ccccc4)ccc3C2=O)C(=O)N1 [GT-06452, 1-(5-((8-benzhydryl-3,8-diazabicyclo[3.2.1]octan-3-yl)methyl)-1-oxoisoindolin-2-yl)dihydropyrimidine-2,4(1H,3H)-dione]
- WEE1 substrate protein remaining % (WEE1): A (0% ≤ substrate protein remaining % ≤80%)
- IKZF1 substrate protein remaining % (IKZF1): B (80%< substrate protein remaining % ≤100%)
- IKZF2 substrate protein remaining % (IKZF2): B (80%< substrate protein remaining % ≤100%)
- IKZF3 substrate protein remaining % (IKZF3): B (80%< substrate protein remaining % ≤100%)
- CK1α substrate protein remaining % (CK1α): B (80%< substrate protein remaining % ≤100%)
- GSPT1 substrate protein remaining % (GSPT1): B (80%< substrate protein remaining % ≤100%)

Structure (SMILES): O=C1CCN(N2C(=O)c3ccc(CN4CC=C(c5n[nH]c6cc(F)ccc56)CC4)cc3C2=O)C(=O)N1 [GT-07643, 2-(2,4-dioxotetrahydropyrimidin-1(2H)-yl)-5-((4-(6-fluoro-1H-indazol-3-yl)-3,6-dihydropyridin-1(2H)-yl)methyl)isoindoline-1,3-dione]
- WEE1 substrate protein remaining % (WEE1): B (80%< substrate protein remaining % ≤100%)
- IKZF1 substrate protein remaining % (IKZF1): B (80%< substrate protein remaining % ≤100%)
- IKZF2 substrate protein remaining % (IKZF2): B (80%< substrate protein remaining % ≤100%)
- IKZF3 substrate protein remaining % (IKZF3): B (80%< substrate protein remaining % ≤100%)
- CK1α substrate protein remaining % (CK1α): B (80%< substrate protein remaining % ≤100%)
- GSPT1 substrate protein remaining % (GSPT1): A (0% ≤ substrate protein remaining % ≤80%)

Structure (SMILES): O=C1CCN(N2C(=O)c3ccc(CN4CCN(c5ccncc5)CC4)cc3C2=O)C(=O)N1 [GT-07073, 2-(2,4-dioxotetrahydropyrimidin-1(2H)-yl)-5-((4-(pyridin-4-yl)piperazin-1-yl)methyl)isoindoline-1,3-dione]
- WEE1 substrate protein remaining % (WEE1): A (0% ≤ substrate protein remaining % ≤80%)
- IKZF1 substrate protein remaining % (IKZF1): B (80%< substrate protein remaining % ≤100%)
- IKZF2 substrate protein remaining % (IKZF2): B (80%< substrate protein remaining % ≤100%)
- IKZF3 substrate protein remaining % (IKZF3): B (80%< substrate protein remaining % ≤100%)
- CK1α substrate protein remaining % (CK1α): B (80%< substrate protein remaining % ≤100%)
- GSPT1 substrate protein remaining % (GSPT1): B (80%< substrate protein remaining % ≤100%)

Structure (SMILES): Cc1ccsc1C1CCN(Cc2ccc3c(c2)CN(N2CCC(=O)NC2=O)C3=O)CC1 [GT-07305, 1-(5-((4-(3-methylthiophen-2-yl)piperidin-1-yl)methyl)-1-oxoisoindolin-2-yl)dihydropyrimidine-2,4(1H,3H)-dione]
- WEE1 substrate protein remaining % (WEE1): B (80%< substrate protein remaining % ≤100%)
- IKZF1 substrate protein remaining % (IKZF1): B (80%< substrate protein remaining % ≤100%)
- IKZF2 substrate protein remaining % (IKZF2): A (0% ≤ substrate protein remaining % ≤80%)
- IKZF3 substrate protein remaining % (IKZF3): A (0% ≤ substrate protein remaining % ≤80%)
- CK1α substrate protein remaining % (CK1α): B (80%< substrate protein remaining % ≤100%)
- GSPT1 substrate protein remaining % (GSPT1): A (0% ≤ substrate protein remaining % ≤80%)

Structure (SMILES): O=C1CCN(N2C(=O)c3ccc(CN4CCN(C(c5ccccc5)c5ccncc5)CC4)cc3C2=O)C(=O)N1 (stereo not drawn) [GT-06378, 2-(2,4-dioxotetrahydropyrimidin-1(2H)-yl)-5-((4-(phenyl(pyridin-4-yl)methyl)piperazin-1-yl)methyl)isoindoline-1,3-dione]
- WEE1 substrate protein remaining % (WEE1): A (0% ≤ substrate protein remaining % ≤80%)
- IKZF1 substrate protein remaining % (IKZF1): B (80%< substrate protein remaining % ≤100%)
- IKZF2 substrate protein remaining % (IKZF2): A (0% ≤ substrate protein remaining % ≤80%)
- IKZF3 substrate protein remaining % (IKZF3): A (0% ≤ substrate protein remaining % ≤80%)
- CK1α substrate protein remaining % (CK1α): B (80%< substrate protein remaining % ≤100%)
- GSPT1 substrate protein remaining % (GSPT1): B (80%< substrate protein remaining % ≤100%)

Structure (SMILES): O=C1CCN(N2C(=O)c3ccc(CN4CCN(c5ccc(Br)cc5)CC4)cc3C2=O)C(=O)N1 [GT-06784, 5-((4-(4-bromophenyl)piperazin-1-yl)methyl)-2-(2,4-dioxotetrahydropyrimidin-1(2H)-yl)isoindoline-1,3-dione]
- WEE1 substrate protein remaining % (WEE1): B (80%< substrate protein remaining % ≤100%)
- IKZF1 substrate protein remaining % (IKZF1): B (80%< substrate protein remaining % ≤100%)
- IKZF2 substrate protein remaining % (IKZF2): B (80%< substrate protein remaining % ≤100%)
- IKZF3 substrate protein remaining % (IKZF3): B (80%< substrate protein remaining % ≤100%)
- CK1α substrate protein remaining % (CK1α): A (0% ≤ substrate protein remaining % ≤80%)
- GSPT1 substrate protein remaining % (GSPT1): B (80%< substrate protein remaining % ≤100%)
